One may read the inhibition as the relative decrease from the control value, in per cent.

The values that follow come from article PMC10766984, “Josephin domain containing 2 (JOSD2) promotes lung cancer by inhibiting LKB1 (Liver kinase B1) activity” (Signal Transduction and Targeted Therapy, 2024).

Structures can show the parent of a compound that is named as a salt.

In this experiment the target is T1, GST-JOSD2 (Homo sapiens, UniProt Q8TAC2).
T1 sequence (Q8TAC2 1-188): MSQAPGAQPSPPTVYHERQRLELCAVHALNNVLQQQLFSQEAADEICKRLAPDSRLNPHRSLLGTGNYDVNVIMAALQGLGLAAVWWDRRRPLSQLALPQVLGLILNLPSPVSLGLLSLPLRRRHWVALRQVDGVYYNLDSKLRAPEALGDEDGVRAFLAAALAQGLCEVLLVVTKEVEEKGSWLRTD
To be noted: for inhibition at 2 µM: read-out: JOSD2 Activity Inhibition (%); for JOSD2 Activity Inhibition (%): compound concentration 2 μM, JOSD2 inhibitor screening, related to Fig. 7a.

In the case of `CCc1ccc(CCOc2ccc(CC3SC(=O)NC3=O)cc2)nc1` (stereo not shown) [Pioglitazone hydrochloride], the inhibition at 2 µM is -5%. `CN1C2=CC(=O)/C(=N\NC(N)=O)C=C2CC1S(=O)(=O)[O-].[Na+]` (stereo not shown) [AC-17 (Carbazochrome sodium sulfonate)]: the “JOSD2 Activity Inhibition (%)” value is given as 9.85%.

For the molecule `CC(CCc1ccccc1)NC(C)C(O)c1ccc(O)cc1` (stereo not shown) [Nylidrin hydrochloride], the inhibition at 2 µM is -31.9%. As to `CN1C[C@H](C(=O)N[C@]2(C)O[C@@]3(O)[C@@H]4CCCN4C(=O)[C@H](Cc4ccccc4)N3C2=O)C=C2c3cccc4[nH]cc(c34)C[C@H]21` [Ergotamine bitartrate], the inhibition at 2 µM is -5.18%. `CCO/N=C1\c2ccccc2-c2nc(C#N)c(C#N)nc21` [DUBs-IN-2]: the “JOSD2 Activity Inhibition (%)” value amounted to 5.01%. On the same count and under the same terms, the result for `C=CCO/N=C1\c2ccccc2-c2nc(C#N)c(C#N)nc21` [DUBs-IN-3] reads 14.15%. With `O=P(O)(O)C(O)(Cc1cccnc1)P(=O)(O)O` [Risedronate Sodium], the inhibition at 2 µM amounted to 4.34%. As for `Cl.N=C(N)NN` [Aminoguanidine hydrochloride], the “JOSD2 Activity Inhibition (%)” value was -35.00%. As to `CC(=O)OCC(=O)NCCCOc1cccc(CN2CCCCC2)c1` [Roxatidine Acetate hydrochloride], the inhibition at 2 µM was -20.8%. For `CC(C)(Sc1ccc(CCN(CCCCC2CCCCC2)C(=O)NC2CCCCC2)cc1)C(=O)O` [GW7647], the inhibition at 2 µM is -29.7%.

Turning to `N#CSc1cc(SC#N)c(N)nc1N` [PR-619, reference compound], the “JOSD2 Activity Inhibition (%)” value was determined as 42.70%. For the same molecule, the “JOSD2 activity inhibition ratio” value (2 μM compound incubated with GST-JOSD2 at 37 °C for 30 min) stood at 42.70%. As to `O=C(CCc1ccccc1)N1CCC(O)(Cn2cnc3cc(Cl)ccc3c2=O)CC1` [USP7-IN-1], the “JOSD2 Activity Inhibition (%)” value is given as -29.77%.

As to HBX 19818, the “JOSD2 Activity Inhibition (%)” value is -0.37%. Same read-out and setting: the figure for `O=C1/C(=C/c2ccc([N+](=O)[O-])cc2)CS(=O)(=O)C/C1=C\c1ccc([N+](=O)[O-])cc1` [Ubiquitin Isopeptidase Inhibitor I] is 1.00%.

On to `CC(=O)[C@H]1CC[C@H]2[C@@H]3C[C@H](C)C4=CC(=O)CC[C@]4(C)[C@H]3[C@@H](O)C[C@]12C` [Medrysone], for which the inhibition at 2 µM was -8.83%.

On to `C#CCN[C@@H]1CCc2ccccc21` [Rasagiline], for which the inhibition at 2 µM was determined as 29%. With `CC(=O)O/N=C1\C(=O)N(Cc2cc(Cl)ccc2Cl)c2ccc(Cl)cc21` [LDN-57444], the “JOSD2 Activity Inhibition (%)” value is listed as -16.75%. On to `CCCSc1nc(N[C@@H]2C[C@H]2c2ccc(F)c(F)c2)c2nnn([C@@H]3C[C@H](OCCO)[C@@H](O)[C@H]3O)c2n1` [Ticagrelor], for which the inhibition at 2 µM was 23.1%.

As for `O=C1c2ccccc2C(=O)c2oc(-c3ccccc3)nc21` [SJB2-043], the “JOSD2 Activity Inhibition (%)” value was found to be 13.43%. As for `CC(C)(C(=O)c1cccnc1)c1cccnc1` [Metyrapone], the inhibition at 2 µM was -6.94%. The same measure, in the same setting: the figure for `CCOC(=O)[N-]c1cn(N2CCOCC2)n[o+]1` [Molsidomine] is 35.8%; for `CC(C(=O)O)c1ccc2c(c1)Cc1cccnc1O2` (stereo not shown) [Pranoprofen] it is -2.73%.

Consider `C=CC(N)CCC(=O)O.Cl` (stereo not shown) [Vigabatrin Hydrochloride], for which the “JOSD2 Activity Inhibition (%)” value is given as -16.37%. As to `O=S(=O)(O)c1cc(O)ccc1O` [Etamsylate], the inhibition at 2 µM is -21.4%. For `C[C@]12CCC(=O)C=C1C=C[C@@H]1[C@@H]2CC[C@@]2(C)[C@H]1CC[C@@]21CCC(=O)O1` [Canrenone], the inhibition at 2 µM is -22.3%.

Tyloxapol: the “JOSD2 Activity Inhibition (%)” value stood at 29.65%. Take `COc1cc(CNC(=O)CCCC/C=C/C(C)C)ccc1O` [Capsaicin]: the inhibition at 2 µM is 1.77%. Consider `CCc1c(-c2ccc3[nH]ncc3c2)cnc(N)c1-c1ccc(O)cc1` [GNE-6640], for which the “JOSD2 Activity Inhibition (%)” value is recorded as 12.54%. Same read-out and setting: the figure for `C[C@H]1C[C@@H]2[C@H]([C@@H](O)C[C@@]3(C)[C@H]2CC[C@]3(O)C(=O)COC(=O)CCC(=O)[O-])[C@@]2(C)C=CC(=O)C=C12.[Na+]` [Methylprodnisolone Sodium Succinate] is -78.62%. Regarding `COC(=O)[C@H](c1ccccc1Cl)N1CCc2sccc2C1` [Clopidogrel sulfate], the inhibition at 2 µM was -15%. For the molecule `CCOC(=O)C1=C(COCCN)NC(C)=C(C(=O)OC)C1c1ccccc1Cl` (stereo not shown) [Amlodipine Besylate], the inhibition at 2 µM was -24.3%. Regarding `O=C1c2ccccc2C(=O)c2oc(-c3cccnc3)nc21` [SJB3-019A], the “JOSD2 Activity Inhibition (%)” value is 42.78%. Same read-out and setting: the result for `C[C@]12C=CC(=O)C=C1CC[C@@H]1[C@@H]2[C@@H](O)C[C@@]2(C)[C@H]1CC[C@]2(O)C(=O)COP(=O)([O-])[O-].[Na+].[Na+]` [Prednisolone phosphate sodium] reads 36.74%. Same read-out and setting: the figure for `CCCC(NC(=O)/C(C#N)=C/c1nc(Cl)ccc1Cl)c1ccc(OCCN2CCOCC2)cc1` (stereo not shown) [EOAI3402143] is 29.05%; for `O=C(c1ccc(F)cc1)C1CCN(CCn2c(=O)[nH]c3ccccc3c2=O)CC1` [Ketaneserin] it is -29.69%. As to `CC1(C)[C@@H](O[C@H]2O[C@H](C(=O)O)[C@@H](O)[C@H](O)[C@H]2O[C@@H]2O[C@H](C(=O)O)[C@@H](O)[C@H](O)[C@H]2O)CC[C@]2(C)[C@H]3C(=O)C=C4[C@@H]5C[C@@](C)(C(=O)O)CC[C@]5(C)CC[C@@]4(C)[C@]3(C)CC[C@@H]12.N.N` [Diammonium Glycyrrhizinate], the “JOSD2 Activity Inhibition (%)” value is -22.76%. Consider `COc1ccc(Cc2nccc3cc(OC)c(OC)cc23)cc1OC` [Papaverine hydrochloride], for which the inhibition at 2 µM was -27.9%. Take `COc1ccc(O)cc1` [Leucobasal]: the inhibition at 2 µM was -15.3%. Consider `CCN(CC)CCNC(=O)c1ccc(N)cc1` [Procainamide hydrochloride], for which the inhibition at 2 µM was -20.4%. For the molecule `C#CCN(C)Cc1ccccc1` [Pargyline], the inhibition at 2 µM is 29.8%. The same measure, in the same setting: the figure for `CC(=O)OCC(=O)[C@@]12OC3(CCCC3)O[C@@H]1C[C@H]1[C@@H]3CCC4=CC(=O)C=C[C@]4(C)[C@@]3(F)[C@@H](O)C[C@@]12C` [Amcinonide] is -19.2%; for `CCCCC(=O)O[C@]1(C(=O)CO)[C@@H](C)C[C@H]2[C@@H]3CCC4=CC(=O)C=C[C@]4(C)[C@@]3(F)[C@@H](O)C[C@@]21C` [Betamethasone 17-valerate] it is -26%.
